For 2 compounds, molar enthalpy results are on record in the NIST ThermoML archive (doi:10.1016/j.jct.2009.04.017).

The nature of this data set: molar enthalpy of vaporization or sublimation. The following applies: Calvet microcalorimetry.

Numbers after ± are expanded uncertainties.

`Oc1ccc(Br)cc1` [4-bromophenol]: the molar enthalpy (298.15 K, Crystal) was 19.9 ± 0.765 kcal/mol.

`Oc1ccccc1Br` [phenol, 2-bromo-]: the molar enthalpy (298.15 K, Liquid) was determined as 13.3 ± 0.621 kcal/mol and the molar enthalpy (329.2 K, Liquid) came out at 13.3 ± 0.621 kcal/mol.
